Legend:
HSP70 = assay: Western blot, HSP70; format: cell-based, human; conditions: SKOV-3, 8 μg/mL, 72 h after treatment
Procedure: (§1) SKOV-3 cells were plated in a 75cm^2 culture flask and exposed to artonin E for 24, 48, and 72 h. Lysis buffer (50 mM Tris–HCl, pH 8.0; 120 mM NaCl, 0.5% NP-40; and 1 mM PMSF) was used to extract the total protein. Protein concentration was determined using a BCA protein assay reagent kit (Bio-Rad, USA). Equal amounts of protein (40 μg) extract were subjected to SDS-PAGE and electroblotted onto a polyvinylidenedifluoride membrane (Bio-Rad). Blots were then blocked with 5% non-fat milk in TBS-Tween buffer 7 (0.12 M Tris-base, 1.5 M NaCl, and 0.1% Tween 20) for 1 h at room temperature. After incubating with the appropriate primary antibody overnight at 4°C, the blots were washed and then incubated with horseradish peroxidase conjugated secondary antibody for 1 h at room temperature. The protein bands were detected using pico or femto chemiluminescence (ECL system) and visualized using a UV gel documentation system. The subsequent primary antibodies, which include those for β-actin (1:10,000), Bax (1:10,000), Bcl-2 (1:10,000), HSP-70 (1:10,000), survivin (1:10,000),caspase -3 (1:10,000), caspase -8 (1:10,000), caspase -9 (1;10,000) and cytochrome c (1:200) were purchased from Abcam, Cambridge, United Kingdom.

caspase-9 = assay: Western blot, caspase-9; format: cell-based, human; conditions: SKOV-3, 8 μg/mL, as early as 24 h
Procedure: as §1

cytochrome c = assay: Cytochrome c releasing apoptosis assay (Western blot of fractions); format: cell-based, human
Procedure: Cytochrome c releasing apoptosis assay kit (ab65311) was purchased from abcam® (Cambridge, UK). The assay was conducted according to the manufacturer’s instruction. Briefly, SKOV-3 cells were induced with artonin E at different time points. The induced and un-induced cells were collected and centrifuged at […] for 5 minutes at 4°C. The cells were washed twice with 10 mL of ice-cold PBS, centrifuged and collected the pellet. The fresh pellets were then re-suspended with 1.0 mL of 1X cytosol extraction buffer mix containing DTT and Protease Inhibitor and incubated on ice for 10 minutes. Cells were then Dounce-homogenized before centrifuging at 7,000×g for 10 min at 4°C. The supernatant were collected and saved as cytosolic fractions. The remaining pellets were resuspended in 0.1 mL mitochondrial extraction buffer, vortexed for 10 seconds and saved as mitochondrial fractions. Both cytosolic and mitochondrial fractions were applied for protein analysis and proceeded with standard Western blot procedure.
SKOV-3 cells were plated in a 75cm^2 culture flask and exposed to artonin E for 24, 48, and 72 h. […] Protein concentration was determined using a BCA protein assay reagent kit (Bio-Rad, USA). […] The protein bands were detected using pico or femto chemiluminescence (ECL system) and visualized using a UV gel documentation system. […]

caspase-3 = assay: Colorimetric caspase-3 activation assay; format: cell-based, human; conditions: SKOV-3, 8 μg/mL, 48 and 72 h treatment
Procedure: Calorimetric assay of the activation of caspases-3, -8, and -9 was conducted using R & D system kit, USA. Briefly, in a T75cm^2 flask 90% confluent SKOV-3 cells were induced with artonin E for 24, 48, and 72 h. The induced cells were trypsinized and centrifuged at 1,800 rpm for 10 min. The fresh pellets were washed with cold PBS and immediately lysed with protein lysis buffer. The cell lysate was then kept on ice for 10 min, centrifuged at 10,000 g for 15 min, and transferred into a new tube. The fresh cell lysate (50 μL), which contained 100–200 μg of protein, was added into a 96-well plate in triplicate. Fifty microliters of reaction buffer and 5 μL of caspase were then transferred into each designated well before incubating the plate in a CO2 incubator at 37°C for 2 h. A microplate reader (Tecan Infinite M 200 PRO, Männedorf, Switzerland) was used for analysis at a wavelength of 405 nm.

survivin = assay: Western blot, survivin; format: cell-based, human; conditions: SKOV-3, 8 μg/mL, 72 h after treatment
Procedure: as §1

SKOV-3 cells [1] = assay: Cell cycle analysis by flow cytometry; format: cell-based, human; conditions: SKOV-3, 8 μg/mL, 72 h after treatment
Procedure: SKOV-3 cells at a concentration of 5×10^5 cells were plated into a T75cm^2 flask and incubated overnight to allow attachment. The attached cells were treated with 8 μg/mL of artonin E at different time points. After treatment, the cells were trypsinized and centrifuged at 1,500 rpm for 10 min. The fresh pellets were washed twice with PBS, fixed with 500 μL of 70% cold ethanol, and incubated at −20°C overnight. The remaining ethanol was then removed and the cells were resuspended in PBS containing 20 μL of RNase A (10 μg/mL) and 2 μL of PI (2.5 μg/mL). The resulting mixture was incubated for 30 min at 37°C in the dark. Samples were immediately analyzed using FACS Canto 11 Becton-Dickinson flow cytometry. For each sample, 10,000 cells were measured. ModFit LT software (Verity Software House, Topsham, ME) was used to analyze the percentage of cells at different phases.

SKOV-3 cells [2] = assay: DNA fragmentation (laddering) assay; format: cell-based, human; conditions: SKOV-3, 8 μg/mL, 24, 48, 72 h, 1.5% agarose gel
Procedure: SKOV-3 cells were treated with artonin E at different time points, and harvested by adding trypsin to promote detachment. The detached cells were spun down and washed two times with cold PBS. The DNA from cells in the suspension was extracted using the suicide Track^TM DNA ladder isolation kit (Calbiochem, EMD Bioscience, Germany). The cells were then lysed by mixing 55 μL of TE (Tris and EDTA) lysis buffer and 20 μL of enzyme A (RNase A). The resulting mixture was incubated at 37°C for 1 h. Subsequently, 25 μL of enzyme B (proteinase K) was added and the lysate was kept in a water bath at 50°C overnight. Following incubation, 2 μL of Pellet Paint, 60 μL of 3M sodium acetate, and 662 μL of 2-propanol were added to the lysate, and the solution was briefly mixed by inversion and incubated at room temperature for 2 min. The DNA was then precipitated by centrifugation of the samples at 16,000×g for 5 min. The supernatant was removed and the fresh pellets were rinsed two times with 70% and 100% ice-cold ethanol. The pellets were air dried at room temperature for a few minutes to discard the ethanol and resuspended with 50 μL of DNA resuspension buffer. The prepared DNA ladder samples were loaded onto a 1.5% gel electrophoresis set up and run at 50 constant volts for 3 h. […]

[3] = set-up: method as in PMID 17855020; conditions: cited from earlier work
Bcl-2 = assay: Western blot, Bcl-2; format: cell-based, human; conditions: SKOV-3, 8 μg/mL
Procedure: as §1

In the case of `CC(C)=CCc1c(-c2cc(O)c(O)cc2O)oc2c3c(cc(O)c2c1=O)OC(C)(C)C=C3` [Artonin E, artonin E], the “level of HSP70 expression” value (HSP70) is reported as “reduced significantly”, the “protein expression level of caspase-9” value (caspase-9) is reported as “significantly (p<0.05) up-regulated” and the “expression level of cytochrome c in cytosolic fraction” value (cytochrome c; SKOV-3, 8 μg/mL, 24, 48, 72 h) is reported as “increase”. For the same compound, the “expression level of cytochrome c in mitochondrial fraction” value (cytochrome c; SKOV-3, 8 μg/mL, time-dependent (24, 48, 72 h)) was “significantly (p<0.05) decreased”, the “activation of caspase-3” value (caspase-3) was “significantly (p<0.05)elevated” and the “level of survivin expression” value (survivin) was “reduced significantly”. The “accumulation of cells arrested at the S phase” value (SKOV-3 cells [1]) was “significantly (p<0.05) increased”, the “DNA fragmentation (ladder pattern)” value (SKOV-3 cells [2]) was “distinctly observed” and the “radical scavenging against the DPPH radical” value [3] was “strong radical scavenging properties”. The Bcl-2 level (Bcl-2; 24 h post treatment) was “significantly lower” and the Bcl-2 level (Bcl-2; after 48 h and 72 h) was “almost diminished”.

From paper PMC4809498, “Artonin E Induces Apoptosis via Mitochondrial Dysregulation in SKOV-3 Ovarian Cancer Cells” (PLoS ONE, 2016)
